Here are results for 5 compounds from ChEMBL document CHEMBL1127285, “N-alkyl quinuclidinium substance P antagonists” (Bioorg Med Chem Lett, 1994).

pIC50: −log10 of the molar value.

For this test, the target named is Substance-P receptor (Homo sapiens, UniProt P25103). In words: Compound was tested in vitro for its Tachykinin receptor 1 affinity by the displacement of [125I]Bolton-Hunter substance p from human IM-9 cells. The format is cell-based. In general terms: Displacement assays read how much labelled ligand stays bound in the presence of the test substance.
Chain of Substance-P receptor (P25103 whole entry): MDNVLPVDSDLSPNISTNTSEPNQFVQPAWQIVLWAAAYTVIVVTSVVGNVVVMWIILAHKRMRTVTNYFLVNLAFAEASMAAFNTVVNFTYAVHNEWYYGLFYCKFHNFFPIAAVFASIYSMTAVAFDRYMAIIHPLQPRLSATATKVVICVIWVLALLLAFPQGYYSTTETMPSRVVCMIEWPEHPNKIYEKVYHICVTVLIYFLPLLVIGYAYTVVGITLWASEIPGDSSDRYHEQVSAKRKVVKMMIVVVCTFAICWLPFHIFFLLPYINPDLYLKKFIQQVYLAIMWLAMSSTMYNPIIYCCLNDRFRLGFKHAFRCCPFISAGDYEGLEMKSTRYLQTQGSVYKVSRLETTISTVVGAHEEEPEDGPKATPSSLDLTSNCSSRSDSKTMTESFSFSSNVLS
Broadly, the pIC50 is −log10 of the IC50, conventionally taken in molar units. Higher therefore signals a small IC50. With `COc1ccccc1CN[C@H]1C2CC[N+](Cc3ccccc3)(CC2)[C@H]1C(c1ccccc1)c1ccccc1`, the pIC50 is 6.48. The value for `COc1ccccc1CN[C@H]1C2CC[N+](C)(CC2)[C@H]1C(c1ccccc1)c1ccccc1` was 7.91; that for `CCOC(=O)C[N+]12CCC(CC1)[C@H](NCc1ccccc1OC)[C@@H]2C(c1ccccc1)c1ccccc1` was 7.49. The value for `C=CC[N+]12CCC(CC1)[C@H](NCc1ccccc1OC)[C@@H]2C(c1ccccc1)c1ccccc1` was 7.65. The value for `COc1ccccc1CN[C@H]1C2CC[N+](CC(N)=O)(CC2)[C@H]1C(c1ccccc1)c1ccccc1` was 8.89.
